#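 A five-concentration, 48-hour dose response in 96-well plates underlies each endpoint, interpolated linearly between surrounding concentrations. At the GI50, growth is halved.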 Calls of active or inactive are those of the source. Rule as the data show it: active = GI50 up to about 1.1 µM and inactive = higher.
# Legend:
# Experiment in all cases: growth of human tumour cells (NCI), 48 h
# MOLT-4 = tested on: MOLT-4
# DMS-273 = tested on: DMS-273
# OVCAR-8 = tested on: OVCAR-8
# UO-31 = tested on: UO-31
# HL-60 = tested on: HL-60
# SN12C = tested on: SN12C
# UACC-62 = tested on: UACC-62
# KM12 = tested on: KM12
# HT-29 = tested on: HT-29
# K562 = tested on: K562
# IGROV-1 = tested on: IGROV-1
# M14 = tested on: M14
# HOP-62 = tested on: HOP-62
# TK-10 = tested on: TK-10
# SK-MEL-28 = tested on: SK-MEL-28
# NCI-H226 = tested on: NCI-H226
# SK-MEL-2 = tested on: SK-MEL-2
# DMS-114 = tested on: DMS-114
# HCT-116 = tested on: HCT-116
# SNB-78 = tested on: SNB-78
# SNB-75 = tested on: SNB-75
# SNB-19 = tested on: SNB-19
# HOP-18 = tested on: HOP-18
# M19-MEL = tested on: M19-MEL
# CCRF-CEM = tested on: CCRF-CEM
# OVCAR-4 = tested on: OVCAR-4
# 786-0 = tested on: 786-0
# EKVX = tested on: EKVX
# HOP-92 = tested on: HOP-92
# DLD-1 = tested on: DLD-1
# NCI-H460 = tested on: NCI-H460
# COLO 205 = tested on: COLO 205
# U-251 = tested on: U-251
# XF498 = tested on: XF498
# RPMI-8226 = tested on: RPMI-8226
# UACC-257 = tested on: UACC-257
# A549 = tested on: A549
# SK-OV-3 = tested on: SK-OV-3
# SF-295 = tested on: SF-295
# SW-620 = tested on: SW-620
# SF-268 = tested on: SF-268
# SR = tested on: SR
# NCI-H522 = tested on: NCI-H522
# NCI-H23 = tested on: NCI-H23
# SF-539 = tested on: SF-539
# LOX IMVI = tested on: LOX IMVI
# Malme-3M = tested on: Malme-3M
# ACHN = tested on: ACHN
# OVCAR-3 = tested on: OVCAR-3
# KM-20L2 = tested on: KM-20L2
# RXF 393 = tested on: RXF 393
# A498 = tested on: A498
# HCT-15 = tested on: HCT-15
# LXFL 529 = tested on: LXFL 529
# HCC 2998 = tested on: HCC 2998
smiles,measurement,setting,value
COc1nc(NC2OCC(O)C(O)C2O)c(NC2OCC(O)C(O)C2O)c(=O)n1C (stereo not given),GI50,MOLT-4,> 100 µM (inactive)
same,GI50,DMS-273,> 100 µM (inactive)
same,GI50,OVCAR-8,> 100 µM (inactive)
same,GI50,UO-31,> 100 µM (inactive)
same,GI50,HL-60,> 100 µM (inactive)
same,GI50,SN12C,> 100 µM (inactive)
same,GI50,UACC-62,> 100 µM (inactive)
same,GI50,KM12,> 100 µM (inactive)
same,GI50,HT-29,> 100 µM (inactive)
same,GI50,K562,> 100 µM (inactive)
same,GI50,IGROV-1,> 100 µM (inactive)
same,GI50,M14,> 100 µM (inactive)
same,GI50,HOP-62,> 100 µM (inactive)
same,GI50,TK-10,> 100 µM (inactive)
same,GI50,SK-MEL-28,> 100 µM (inactive)
same,GI50,NCI-H226,89.7 µM (inactive)
same,GI50,SK-MEL-2,> 100 µM (inactive)
same,GI50,DMS-114,> 100 µM (inactive)
same,GI50,HCT-116,> 100 µM (inactive)
same,GI50,SNB-78,> 100 µM (inactive)
same,GI50,SNB-75,> 100 µM (inactive)
same,GI50,SNB-19,> 100 µM (inactive)
same,GI50,HOP-18,> 100 µM (inactive)
same,GI50,M19-MEL,> 100 µM (inactive)
same,GI50,CCRF-CEM,> 100 µM (inactive)
same,GI50,OVCAR-4,> 100 µM (inactive)
same,GI50,786-0,> 100 µM (inactive)
same,GI50,EKVX,> 100 µM (inactive)
same,GI50,HOP-92,> 100 µM (inactive)
same,GI50,DLD-1,> 100 µM (inactive)
same,GI50,NCI-H460,> 100 µM (inactive)
same,GI50,COLO 205,> 100 µM (inactive)
same,GI50,U-251,> 100 µM (inactive)
same,GI50,XF498,> 100 µM (inactive)
same,GI50,RPMI-8226,> 100 µM (inactive)
same,GI50,UACC-257,> 100 µM (inactive)
same,GI50,A549,> 100 µM (inactive)
same,GI50,SK-OV-3,> 100 µM (inactive)
same,GI50,SF-295,> 100 µM (inactive)
same,GI50,SW-620,> 100 µM (inactive)
same,GI50,SF-268,> 100 µM (inactive)
same,GI50,SR,> 100 µM (inactive)
same,GI50,NCI-H522,> 100 µM (inactive)
same,GI50,NCI-H23,> 100 µM (inactive)
same,GI50,SF-539,> 100 µM (inactive)
same,GI50,LOX IMVI,> 100 µM (inactive)
same,GI50,Malme-3M,> 100 µM (inactive)
same,GI50,ACHN,> 100 µM (inactive)
same,GI50,OVCAR-3,> 100 µM (inactive)
same,GI50,KM-20L2,> 100 µM (inactive)
same,GI50,RXF 393,> 100 µM (inactive)
same,GI50,A498,> 100 µM (inactive)
same,GI50,HCT-15,> 100 µM
same,GI50,LXFL 529,> 100 µM (inactive)
same,GI50,HCC 2998,> 100 µM (inactive)
